Results from paper PMC9279627 (Acta Pharmaceutica Sinica. B, 2021).

Experiments:
CYP2C9 [1] = target: T1, CYP2C9 (Homo sapiens, UniProt P11712); format: biochemical; conditions: for Modulation of CYP2C9 activity in visual high-throughput screen: clinical drugs 10 μmol/L, DDAM 10 μmol/L, HLM, 96-well microplate; for Concentration-dependent inhibitory effect toward CYP2C9: 0.1, 0.5, 1, 10 and 20 μmol/L, DDAM, Fig. 4B
[2] = system: CYP2J2 in HeLa and HepG2 cells; experiment: Confocal fluorescence imaging of CYP2J2 activity by MXMB in living cells; format: cell-based, human; conditions: Fig. S13
CYP2C9 [3] = target: T1, CYP2C9; conditions: DDAM 10 μmol/L, Fig. S6

T1 sequence (P11712 whole entry): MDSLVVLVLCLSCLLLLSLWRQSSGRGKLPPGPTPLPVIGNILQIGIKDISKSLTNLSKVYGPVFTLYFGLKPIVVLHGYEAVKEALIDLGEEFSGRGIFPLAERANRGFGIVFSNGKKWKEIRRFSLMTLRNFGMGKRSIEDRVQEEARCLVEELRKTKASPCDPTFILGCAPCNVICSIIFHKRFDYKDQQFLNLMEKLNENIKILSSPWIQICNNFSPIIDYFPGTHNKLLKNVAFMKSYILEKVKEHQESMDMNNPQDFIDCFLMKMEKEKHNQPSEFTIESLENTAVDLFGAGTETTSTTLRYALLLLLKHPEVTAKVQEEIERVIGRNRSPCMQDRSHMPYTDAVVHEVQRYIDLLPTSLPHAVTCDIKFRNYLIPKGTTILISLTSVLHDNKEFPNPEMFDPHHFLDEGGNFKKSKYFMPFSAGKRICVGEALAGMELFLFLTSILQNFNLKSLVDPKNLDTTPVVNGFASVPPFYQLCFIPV

**Q.** How did the “Inhibitor of CYP2C9 identified from E. rutaecarpa extract” value (CYP2C9 [1]; DDAM fluorescence assay, pre-HPLC fractions) turn out when `CCCCCCCCCCCc1cc(=O)c2ccccc2n1C` [1-methyl-2-undecyl-4(1H) quinolone] was run?
**A.** Its value is “novel inhibitor”.

**Q.** Which “Effect of pre-treatment on intracellular fluorescence of MXMB” value [2] does the source give for `C#C[C@]1(O)CC[C@H]2[C@@H]3CCC4=Cc5oncc5C[C@]4(C)[C@H]3CC[C@@]21C` [danazol] here?
**A.** The value was “remarkable suppression of intracellular fluorescence”.

**Q.** Which “Modulation of CYP2C9 activity in visual high-throughput screen” value (shortened to “Modulation of CYP2C9 activity”) (CYP2C9 [1]) does the source give for `Nc1ccc(S(=O)(=O)c2ccc(N)cc2)cc1` [dapsone] here?
**A.** Its value is “activators”.

**Q.** How did the “Modulation of CYP2C9 activity” value (CYP2C9 [1]) turn out when `NCCc1ccc(O)c(O)c1` [dopamine] was run?
**A.** Its value is “activators”.

**Q.** `C[C@]12CC[C@@H]3c4ccc(O)cc4CC[C@H]3[C@@H]1CC[C@@H]2O` [estradiol] was tested. Which “Modulation of CYP2C9 activity” value (CYP2C9 [1]) did it give?
**A.** Its value is “activators”.

**Q.** `Cc1c(OCC(F)(F)F)ccnc1C[S+]([O-])c1nc2ccccc2[nH]1` (stereo not shown) [lansoprazole] was tested. Which “Modulation of CYP2C9 activity” value (CYP2C9 [1]) did it give?
**A.** Its value is “activators”.

**Q.** For `COC(=O)Nc1nc2ccc(C(=O)c3ccccc3)cc2[nH]1` [mebendazole], which “Modulation of CYP2C9 activity” value (CYP2C9 [1]) is on record?
**A.** Its value is “activators”.

**Q.** How did the “Concentration-dependent inhibitory effect toward CYP2C9” value (CYP2C9 [1]) turn out when `Clc1ccc(COC(Cn2ccnc2)c2ccc(Cl)cc2Cl)c(Cl)c1` (stereo not shown) [miconazole] was run?
**A.** Its value is “significant inhibitory effect”.

**Q.** And the “Modulation of CYP2C9 activity” value (CYP2C9 [1])?
**A.** The value was “strong inhibitors”.

**Q.** With `COc1ccc2[nH]c([S+]([O-])Cc3ncc(C)c(OC)c3C)nc2c1` (stereo not shown) [omeprazole] as the compound, how does the “Modulation of CYP2C9 activity” value (CYP2C9 [1]) read?
**A.** Its value is “activators”.

**Q.** For `COc1ccnc(C[S+]([O-])c2nc3ccc(OC(F)F)cc3[nH]2)c1OC` (stereo not shown) [pantoprazole], which “Modulation of CYP2C9 activity” value (CYP2C9 [1]) is on record?
**A.** Its value is “activators”.

**Q.** Which results are given for `O=C(c1ccc(OCCN2CCCCC2)cc1)c1c(-c2ccc(O)cc2)sc2cc(O)ccc12` [raloxifene]?
**A.** Concentration-dependent inhibitory effect toward CYP2C9 (CYP2C9 [1]): significant inhibitory effect; Modulation of CYP2C9 activity in visual high-throughput screen (CYP2C9 [1]): strong inhibitors

**Q.** Which “Concentration-dependent inhibitory effect toward CYP2C9” value (CYP2C9 [1]) does the source give for `Nc1ccc(S(=O)(=O)Nc2ccnn2-c2ccccc2)cc1` [sulfaphenazole] here?
**A.** The value was “significant inhibitory effect”.

**Q.** What about the “Modulation of CYP2C9 activity” value (CYP2C9 [1]) of the same compound?
**A.** The value was “strong inhibitors”.

**Q.** And the “Effect on demethylation of DDAM” value (CYP2C9 [3])?
**A.** The value was “inhibited”.
